Laboratory results reported in PubChem BioAssay (NCI).
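Each compound was tested at five concentrations against cells in 96-well plates for 48 hours. At the GI50, growth is halved. TGI: concentration producing complete growth inhibition.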

Assays:
Test in all cases: NCI-60 cell line screen, 48 h
[1] = tested on: NCI-H23 lung
[2] = tested on: NCI-H460 lung
[3] = tested on: NCI-H522 lung
[4] = tested on: NCI/ADR-RES ovarian
[5] = tested on: OVCAR-3 ovarian
[6] = tested on: OVCAR-4 ovarian
[7] = tested on: OVCAR-5 ovarian
[8] = tested on: OVCAR-8 ovarian
[9] = tested on: PC-3 prostate
[10] = tested on: RPMI-8226 leukemia
[11] = tested on: RXF 393 renal
[12] = tested on: SF-268 CNS
[13] = tested on: SF-295 CNS
[14] = tested on: SF-539 CNS
[15] = tested on: SK-MEL-2 melanoma
[16] = tested on: SK-MEL-28 melanoma
[17] = tested on: SK-MEL-5 melanoma
[18] = tested on: SK-OV-3 ovarian
[19] = tested on: SN12C renal
[20] = tested on: SNB-19 CNS
[21] = tested on: SNB-75 CNS
[22] = tested on: SR leukemia
[23] = tested on: SW-620 colon
[24] = tested on: T-47D breast
[25] = tested on: TK-10 renal
[26] = tested on: U251 CNS
[27] = tested on: UACC-257 melanoma
[28] = tested on: UACC-62 melanoma
[29] = tested on: UO-31 renal

Work on `COc1ccc(C(=O)COc2cccc(/C=C3\CSc4ccccc4C3=O)c2)cc1` yielded a GI50 [1] of 2.14 µM, a TGI [1] of 4.78 µM and a GI50 [2] of 3.56 µM. It also gave a TGI [2] of 12 µM, a GI50 [3] of 1.73 µM and a TGI [3] of 3.86 µM. For the same compound, the GI50 [4] was 3.08 µM, the TGI [4] was 9.64 µM and the GI50 [5] was 1.88 µM. The TGI [5] was 3.65 µM, the GI50 [6] was 2.79 µM and the TGI [6] was 9.87 µM. The GI50 [7] was 2.18 µM, the TGI [7] was 4.77 µM and the GI50 [8] was 2.65 µM. It also gave a TGI [8] of 6.71 µM, a GI50 [9] of 2.03 µM and a TGI [9] of 5.03 µM. The GI50 [10] was 0.342 µM, the TGI [10] was 3.69 µM and the GI50 [11] was 2.42 µM. It also gave a TGI [11] of 5.39 µM, a GI50 [12] of 2.47 µM and a TGI [12] of 5.77 µM. It also gave a GI50 [13] of 1.87 µM, a TGI [13] of 3.77 µM and a GI50 [14] of 2.95 µM. For the same compound, the TGI [14] was 8.51 µM, the GI50 [15] was 1.86 µM and the TGI [15] was 3.49 µM. The GI50 [16] was 2.04 µM, the TGI [16] was 3.71 µM and the GI50 [17] was 1.78 µM. It also gave a TGI [17] of 3.27 µM, a GI50 [18] of 10.8 µM and a TGI [18] of 45.7 µM. For the same compound, the GI50 [19] was 2.63 µM, the TGI [19] was 8.31 µM and the GI50 [20] was 2.77 µM. For the same compound, the TGI [20] was 8.73 µM, the GI50 [21] was 4.85 µM and the TGI [21] was 18.4 µM. For the same compound, the GI50 [22] was 0.395 µM, the GI50 [23] was 0.262 µM and the TGI [23] was 0.707 µM. The GI50 [24] was 2.33 µM, the TGI [24] was 5.79 µM and the GI50 [25] was 2.73 µM. It also gave a TGI [25] of 9.79 µM, a GI50 [26] of 1.57 µM and a TGI [26] of 2.99 µM. For the same compound, the GI50 [27] was 2.49 µM, the TGI [27] was 6.12 µM and the GI50 [28] was 1.72 µM. It also gave a TGI [28] of 3.3 µM, a GI50 [29] of 1.69 µM and a TGI [29] of 3.46 µM.
